The source made the active and inactive calls. The calls are words filed in the database; no cut-off is given here.
Key:
[1] = test system: Rattus norvegicus; assay: Hypotensive activity in anaesthetized normotensive Wistar rat assessed as decrease in diastolic pressure at 0.625 mg/kg, po administered as single dose after 5 mins; assay type: functional, organism-based; design: dose 0.625 mg/kg
[2] = test system: Rattus norvegicus; assay: Hypotensive activity in anaesthetized normotensive Wistar rat assessed as decrease in systolic pressure at 0.625 mg/kg, po administered as single dose after 5 mins; assay type: functional, organism-based; design: dose 0.625 mg/kg
[3] = Increase in frequency of contraction in rabbit intestine at 1 nM after 5 mins; assay type: functional, Oryctolagus cuniculus

SMILES	Activity [1]	Activity [2]	Activity [3] [%]
COc1ccccc1OCCNC[C@H](O)COc1cccc2[nH]ccc12	Active	Active	–
COc1ccccc1OCCNCC(O)COc1cccc2[nH]ccc12 (racemic)	–	–	8

Source: ChEMBL document CHEMBL1153880, “Synthesis and adrenolytic activity of 1-(1H-indol-4-yloxy)-3-{[2-(2-methoxyphenoxy)ethyl]amino}propan-2-ol and its enantiomers. Part 1” (Eur J Med Chem, 2009)
